By IC50 is commonly meant the concentration that inhibits the measured activity by half. What is called CC50 is the concentration that lowers cell viability or growth by half.

Like-named read-outs stand apart in the source and are kept apart here. Bounds are passed on as bounds.

For 3 compounds, IC50, EC50 and CC50 results are on record in article PMC4629473 (European journal of medicinal chemistry, 2015).

Series [1] concerns the target HIV-1 IN recombinant protein (Human immunodeficiency virus type 1 group M subtype B, UniProt P12497). Briefly: HIV-1 integrase 3′-processing gel-based assay. The format is biochemical.
In another series the test system is HIV-1. Briefly: Antiviral activity against HIV-1 in activated primary human PBM cells. The format is cell-based. Conditions: read-out: EC50 (μM), concentration required to induce 50% of inhibition.
The next series relates to CEM cells. Briefly: Cytotoxicity in CEM cells. The format is cell-based.
The test system of the next series is Vero cells. Briefly: Cytotoxicity in Vero cells. The format is cell-based.
The next series concerns PBM cells. Briefly: Cytotoxicity in normal PBM cells. The format is cell-based, human.

Take `CCOC(=O)c1c(-c2ccccc2)nc(=O)n(Cc2ccc(C(=O)/C=C(\O)C(=O)O)cc2)c1C` [4a, 4-[4-[(5-ethoxycarbonyl-6-methyl-2-oxo-4-phenyl-pyrimidin-1-yl)methyl]phenyl]-2-hydroxy-4-oxo-but-2-enoic acid]: the IC50 in series [1] is greater than 111 µM.

On to “Ethyl (Z)-1-(4-(3-hydroxy-4-isopropoxy-4-oxobut-2-enoyl)benzyl)-4-(4-methoxyphenyl)-2-oxo-6-phenyl-1,2-dihydropyrimidine-5-carboxylate [4′l]”, for which the EC50 in the series with HIV-1 was found to be 80.6 µM. Further, the cytotoxic concentration (CC50) in the series with CEM cells was 25.3 µM; with Vero cells it was greater than 100 µM; in the series with PBM cells it was greater than 100 µM.

In the case of “Ethyl (Z)-6-ethyl-1-(4-(3-(3-hydroxy-4-isopropoxy-4-oxobut-2-enoyl)benzyl)benzyl)-2-oxo-4-phenyl-1,2-dihydropyrimidine-5-carboxylate [19′]”, the EC50 in the series on HIV-1 was 36.8 µM. In addition, the CC50 with CEM cells (read-out: CC50 (μM) CEM, CEM cells, concentration reducing cell growth by 50%) was 8.9 µM; in the series on Vero cells (read-out: CC50 (μM) VERO, VERO cells, concentration reducing cell growth by 50%), greater than 100 µM; in the series on PBM cells (read-out: CC50 (μM) PBM, PBM cells, concentration reducing cell growth by 50%), 47.6 µM.
